Entries after “also recorded” stand apart in the source; their conditions may differ.

For one data set, the system named is monocytic THP-1 cells. The data set can be described thus: Cytotoxicity on monocytic THP-1 cells. Particulars: concentrations up to 100 μM. Type of data set: cell-based.
In data set [1] the test system is chick chorioallantoic membrane (CAM). Put plainly: Chick chorioallantoic membrane (CAM) assay. The class given is in vivo. Particulars: methylcellulose disc, 100 micromolar SsnB. As to the method: To investigate the effects of SsnB on in vivo angiogenesis, a chick chorioallantoic membrane (CAM) assay was utilized. Chick embryos were exposed to methylcelluose discs containing vehicle control (DMSO) or 100 micromolar SsnB.
Methylcellulose discs were created with a solution of 0.5% methylcellulose (diluted in sterile deionized water). A methylcellulose solution of 100 micromolar SsnB was made by adding 1.1 microliters of stock SsnB (93 mM) to 1 ml 0.5% methylcellulose. A vehicle control solution was created by adding 1 microliter of dimethyl sulfoxide (DMSO) to 1 ml 0.5% methylcellulose. Discs were created by placing 20 microliter droplets of SsnB or vehicle control solution onto polytetrafluoroethylene tape (to minimize sticking during drying) and allowed to dry under a laminar flow hood.
The fertilized eggs were placed in a humidified egg incubator with forced air circulation at 37° C. The eggs were automatically rotated every three hours. After 4 days of incubation, the eggs were removed and cracked. Chick embryos with intact yolks were placed in 100 mm petri plates. Each petri plate was placed in a weigh boat containing 13 ml Moscona's buffer and covered with cellophane wrap with two holes for air circulation. The plates were placed in a water-jacketed incubator (37 C, 5% CO2) for 2 days. After 2 days of incubation, the methylcellulose discs containing either SsnB or vehicle control were placed on top of the CAM of each embryo in the right upper quadrant in an area near the allantoic vessels. After 2 additional days of incubation, the CAMs were examined and photographed with a dissecting stereomicroscope. Images were taken of areas containing the discs and non-treated regions. Each group contained seven embryos (calculated with PS 3.0.5 software, effect size of 50%, standard deviation of 30%, statistical power of 0.8, and α=0.05). The CAM assay was completed two times.
Images were analyzed with ImagePro Plus software. Blood vessel length and branching number were utilized to measure the effect of SsnB on angiogenesis. The vessel length was measured for areas containing the discs and non-treated regions. Normalized vessel length was calculated by dividing the length values of the treated regions by those of the non-treated regions. The same process was repeated for measuring the branching number.

Data set [2] concerns HUVECs. The data set can be described thus: Cell cycle analysis, propidium iodide flow cytometry. Type of data set: cell-based, human. The procedure: Cell cycle analysis was performed using propidium iodide staining and flow cytometry. HUVECs (approximately 75% confluent) cultured in 6 well polystyrene culture plates coated with 0.1% gelatin were serum starved for 24 hours in low serum medium containing 0.5% fetal bovine serum and no endothelial cell mitogen to synchronize the cells in the G1/S phase. After 24 hours, the low serum medium was replaced with treatments of either 100 μM SsnB or vehicle control (0.1% DMSO) diluted in complete growth medium (10% fetal bovine serum with endothelial cell mitogen) in triplicate. The treated cells were incubated for 24, 30, and 36 hours. After incubation, the cells were trypsinized, transferred to 5 ml polysytrene round bottom tubes (12×75 mm), and centrifuged. The medium was aspirated, and the cells were washed with PBS. After fixing the cells with ice-cold 70% ethanol for 15 min, the cells were centrifuged and stained with propidium iodide for 30 min. The samples were then analyzed with a flow cytometer (Beckman Coulter FC500). The unstained and stained cell groups were used to calibrate the settings on the flow cytometer. The data were collected and analyzed with ModFit software.
(In general: A flow cytometer gives signals particle by particle.)

The subject of data set [3] is human aortic smooth muscle cells. Put plainly: Cytotoxicity on human aortic smooth muscle cells. Type of data set: cell-based. The conditions noted are these: concentrations up to 100 μM.
Data set [4] relates to Toll-like Receptors 2 and 4 (TLR2 and TLR4). Particulars: mouse and human macrophages, prior research; cited from earlier work.
For data set [5], the system named is HUVECs. The data set can be described thus: Real time RT-PCR gene expression (HUVECs). The class given is cell-based, human. The conditions noted are these: 24 h. The procedure:
After a careful analysis of the microarray data, key genes (CDC6, CCNE2, KITLG, ALDH3A1, CCNB1, CDC2, HMMR, DIAPH3, ANLN, and CDKN3) were chosen for quantitative real-time PCR (qRT-PCR) to verify the gene expression results. HCAECs and HUVECs were exposed to SsnB or vehicle control for 24 h (as previously described in the microarray section). For RT-PCR, RNA was isolated from the cells with the RNeasy Mini kit as described previously. After forward and reverse primer kits (Qiagen, Valencia, Calif.) were selected, the RNA was amplified. The one-step RT-PCR reactions were completed on the BioRad iCycler thermal cycler system in the Instrumentation Resource Facility at the USC School of Medicine. The expression levels were normalized, and RNA levels were quantified.
Microarray data analysis, including data normalization (robust multi-array average), identification of differentially expressed genes (comparative analyses with dChip software), and heat map construction, was carried out to determine how SsnB affects gene expression and affected pathways (n=2 for HUVECs and n=3 for HCAECs). After a careful analysis of the microarray data, several key genes were chosen for qRT-PCR to verify the gene expression results. The genes were chosen based on the following criteria: fold change ≧2, p<0.05, unpaired t-test with a false discovery rate approximating 0%, appearing in both data sets (HUVECs and HCAECs), and gene function relating to cell proliferation and/or angiogenesis. For qRT-PCR, the expression levels were normalized to the housekeeping gene GAPDH, and RNA levels were compared between groups with the ΔΔCt method.

The mark [6] stands for this setting: synchronized HUVECs, 100 μM SsnB, 24, 30 and 36 hours, vs vehicle control.
Setting [7] is: SsnB vs vehicle control, normalized to GAPDH.

In the case of `O=c1occ2c3c(ccc(O)c13)Oc1ccc(O)cc1-2` [SsnB, Sparstolonin B], in the data set with monocytic THP-1 cells, the cytotoxic effects entry is listed as “does not exhibit cytotoxic effects”. Besides, the “blood vessel diameter and size” value in data set [1] (2 days) is on record as “decrease”. Also, the normalized branch number entry in data set [1] (2 days, vs vehicle control) is “significant decrease; also recorded: significant reduction”. For the same compound, the “normalized blood vessel length (capillary length)” value in data set [1] (2 days, vs vehicle control, p<0.05) is on record as “significant decrease; also recorded: significant reduction”. Besides, the “viability or morphology of the embryos” value in data set [1] (relative to vehicle control) is on record as “no effect”. Moreover, in the data set on HUVECs [2] (non-synchronized (no serum starvation) HUVECs), the G2/M blockage result is “G2/M blockage was observed”. Moreover, in the data set on HUVECs [2] (setting [6]), the “percentage of cells in the G1 phase” value is “increase” and the “percentage of cells in the S phase” value is on record as “decrease”. The cytotoxic effects result in data set [3] is listed as “does not exhibit cytotoxic effects”. The “inflammatory responses of macrophages to ligands for TLR2 and TLR4” value in data set [4] was “selectively inhibiting”. Besides, in the data set on HUVECs [5], the “ALDH3A1 expression (qRT-PCR)” value is listed as 1280 % of controls and the “KITLG expression (qRT-PCR)” value is given as 400 % of controls. Besides, in the data set with HUVECs [5] (setting [7]), the “ALDH3A1 PCR 2^ΔΔCt value” came to 12.8, the “ANLN PCR 2^ΔΔCt value” came to 0.20, the “CCNB1 PCR 2^ΔΔCt value” was determined as 0.40 and the “CCNE2 PCR 2^ΔΔCt value” is reported as 0.64. Further, in the data set with HUVECs [5] (setting [7]), the “CDC2 PCR 2^ΔΔCt value” stood at 0.14, the “CDC6 PCR 2^ΔΔCt value” was 0.35, the “CDKN3 PCR 2^ΔΔCt value” was 0.18 and the “DIAPH3 PCR 2^ΔΔCt value” was found to be 0.19. Also, in the data set on HUVECs [5] (setting [7]), the “HMMR PCR 2^ΔΔCt value” was 0.24 and the “KITLG PCR 2^ΔΔCt value” is 4.0.
